Test results taken from PubChem BioAssay AID1918931 (Molecular Pharmacology Branch, DTP, NCI, 2023).

Tested on: 138582-337-R-J1-PDC complex spheroid viability
Test: Anticancer human tumor 138582-337-R-J1-PDC patient-derived Merkel cell tumor cell line growth inhibition
Settings: for IC50: curve of first compound; for viability, T/C: stronger effect = lower value
Outline: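 Complex spheroids of tumor cells with HUVEC and human MSCs, exposed to iadademstat combined with other agents. Each agent tested in half-log steps from near clinical Cmax (else 10 microM top), DMSO ≤0.25%.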

[1] = second compound 0.1 µM, first compound 0.0316 µM
[2] = second compound 0.1 µM, first compound 0.1 µM
[3] = second compound 0.1 µM, first compound 0.316 µM
[4] = second compound 0.1 µM, first compound 1 µM
[5] = second compound 0.1 µM, first compound 3.16 µM
[6] = second compound 0.1 µM, first compound 10 µM
[7] = second compound 0.316 µM, first compound 0.0316 µM
[8] = second compound 0.316 µM, first compound 0.1 µM
[9] = second compound 0.316 µM, first compound 0.316 µM
[10] = second compound 0.316 µM, first compound 1 µM
[11] = second compound 0.316 µM, first compound 3.16 µM
[12] = second compound 0.316 µM, first compound 10 µM
[13] = second compound 1 µM, first compound 0.0316 µM
[14] = second compound 1 µM, first compound 0.1 µM
[15] = second compound 1 µM, first compound 0.316 µM
[16] = second compound 1 µM, first compound 1 µM
[17] = second compound 1 µM, first compound 3.16 µM
[18] = second compound 1 µM, first compound 10 µM
[19] = second compound 3.16 µM, first compound 0.0316 µM
[20] = second compound 3.16 µM, first compound 0.1 µM
[21] = second compound 3.16 µM, first compound 0.316 µM
[22] = second compound 3.16 µM, first compound 1 µM
[23] = second compound 3.16 µM, first compound 3.16 µM
[24] = second compound 3.16 µM, first compound 10 µM
[25] = second compound 10 µM, first compound 0.0316 µM
[26] = second compound 10 µM, first compound 0.1 µM
[27] = second compound 10 µM, first compound 0.316 µM
[28] = second compound 10 µM, first compound 1 µM
[29] = second compound 10 µM, first compound 3.16 µM
[30] = second compound 10 µM, first compound 10 µM
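Wherever viability, T/C is given: 100% = DMSO vehicle control viability.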

CC(C)c1c(-c2ccccc2)nc2c(C#N)c[nH]n2c1=O + NC1CCC(NC2CC2c2ccccc2)CC1
IC50 (second compound 0.1 µM): > 10 µM
IC50 (second compound 0.316 µM): > 10 µM
IC50 (second compound 1 µM): > 10 µM
IC50 (second compound 3.16 µM): > 10 µM
IC50 (second compound 10 µM): > 10 µM
viability, T/C [1]: 104%
viability, T/C [2]: 103%
viability, T/C [3]: 93.8%
viability, T/C [4]: 92.3%
viability, T/C [5]: 86%
viability, T/C [6]: 89.7%
viability, T/C [7]: 94.2%
viability, T/C [8]: 102%
viability, T/C [9]: 94.8%
viability, T/C [10]: 82%
viability, T/C [11]: 97.1%
viability, T/C [12]: 102%
viability, T/C [13]: 86.3%
viability, T/C [14]: 93.9%
viability, T/C [15]: 85.7%
viability, T/C [16]: 92%
viability, T/C [17]: 90%
viability, T/C [18]: 106%
viability, T/C [19]: 90%
viability, T/C [20]: 86.5%
viability, T/C [21]: 97.3%
viability, T/C [22]: 79.5%
viability, T/C [23]: 81.5%
viability, T/C [24]: 83.5%
viability, T/C [25]: 96.7%
viability, T/C [26]: 82.7%
viability, T/C [27]: 73.4%
viability, T/C [28]: 88.2%
viability, T/C [29]: 80.4%
viability, T/C [30]: 79.7%

CC1COCCN1c1cc(-c2ccnn2C)c2ccnc(-c3ccn[nH]3)c2n1 (stereo not given) + NC1CCC(NC2CC2c2ccccc2)CC1
IC50 (second compound 0.1 µM): 0.441 µM
IC50 (second compound 0.316 µM): 0.231 µM
IC50 (second compound 1 µM): 0.454 µM
IC50 (second compound 3.16 µM): 0.332 µM
IC50 (second compound 10 µM): 0.332 µM
viability, T/C (second compound 0.1 µM, first compound 0.00316 µM): 90.8%
viability, T/C (second compound 0.1 µM, first compound 0.01 µM): 91.8%
viability, T/C [1]: 77.4%
viability, T/C [2]: 75.8%
viability, T/C [3]: 53.8%
viability, T/C [4]: 36.7%
viability, T/C (second compound 0.316 µM, first compound 0.00316 µM): 76.9%
viability, T/C (second compound 0.316 µM, first compound 0.01 µM): 104%
viability, T/C [7]: 91.3%
viability, T/C [8]: 65%
viability, T/C [9]: 47.9%
viability, T/C [10]: 38.2%
viability, T/C (second compound 1 µM, first compound 0.00316 µM): 110%
viability, T/C (second compound 1 µM, first compound 0.01 µM): 101%
viability, T/C [13]: 80%
viability, T/C [14]: 70%
viability, T/C [15]: 50.3%
viability, T/C [16]: 44.7%
viability, T/C (second compound 3.16 µM, first compound 0.00316 µM): 89%
viability, T/C (second compound 3.16 µM, first compound 0.01 µM): 77.9%
viability, T/C [19]: 77.3%
viability, T/C [20]: 69.2%
viability, T/C [21]: 47.9%
viability, T/C [22]: 40.1%
viability, T/C (second compound 10 µM, first compound 0.00316 µM): 75.7%
viability, T/C (second compound 10 µM, first compound 0.01 µM): 73.4%
viability, T/C [25]: 72.6%
viability, T/C [26]: 67.4%
viability, T/C [27]: 50.2%
viability, T/C [28]: 42.6%

COc1ccc([C@@H](O)c2cc(-c3ncnc4cc(N5CCOCC5)ccc34)c(F)cc2Cl)nn1 + NC1CCC(NC2CC2c2ccccc2)CC1
IC50 (second compound 0.1 µM): 1.56 µM
IC50 (second compound 0.316 µM): 2.57 µM
IC50 (second compound 1 µM): 1.48 µM
IC50 (second compound 3.16 µM): 1.8 µM
IC50 (second compound 10 µM): 1.41 µM
viability, T/C [1]: 80.6%
viability, T/C [2]: 96.2%
viability, T/C [3]: 76.5%
viability, T/C [4]: 54.6%
viability, T/C [5]: 44.9%
viability, T/C [6]: 32.9%
viability, T/C [7]: 76.4%
viability, T/C [8]: 77.3%
viability, T/C [9]: 62.6%
viability, T/C [10]: 63.1%
viability, T/C [11]: 46.8%
viability, T/C [12]: 33.3%
viability, T/C [13]: 83.1%
viability, T/C [14]: 74.5%
viability, T/C [15]: 71.7%
viability, T/C [16]: 50.3%
viability, T/C [17]: 44.7%
viability, T/C [18]: 33.7%
viability, T/C [19]: 81.1%
viability, T/C [20]: 90.1%
viability, T/C [21]: 69.1%
viability, T/C [22]: 61.2%
viability, T/C [23]: 40.7%
viability, T/C [24]: 24.2%
viability, T/C [25]: 87.2%
viability, T/C [26]: 72.5%
viability, T/C [27]: 75.9%
viability, T/C [28]: 47.1%
viability, T/C [29]: 43.4%
viability, T/C [30]: 14.2%
